Data on six compounds can be found in US12145899B2, “Deuterated analogs of acetyl-leucine” (INTRABIO LTD., priority 2018, dated 2024).

Broadly, the Cmax is the maximum level reached in the sampled fluid or tissue. The term AUC(0-t) denotes exposure summed from dosing to a finite time, without extrapolation to infinity.

For data set [1], the system named is Tay-Sachs, AB Variant patient-derived fibroblast cells. Put plainly: Tay-Sachs AB human fibroblast cell assay: lysosomal volume by LysoTracker flow cytometry. The following applies: for LysoTracker signal relative to untreated (1.00): Tay-Sachs AB Variant fibroblasts, 1 mM, 7 days, n=3. The data set is classed as cell-based. The protocol: FIG. 2 is bar graph showing the effect of acetyl-leucine (referred to as IB1000) and acetyl-leucine-2,3,3,4-d4 (referred to as DIB1000) in a Tay-Sachs AB human fibroblast cell assay. Tay-Sachs, AB Variant patient-derived fibroblast cells were treated with 1 mM acetyl-leucine or acetyl-leucine-2,3,3,4-d4 to compare LysoTracker signals. Untreated; 1.00±0.02, n=3, Acetyl-leucine; 0.97±0.01, n=3, Acetyl-leucine-2,3,3,4-d4; 0.91±0.02, n=3. One-way ANOVA was conducted for statistical analysis. */**p<0.003/0.02. The technique applied in the present study is described in te Vruchte et al., J. Clin. Invest. 3:1320-1328 (2014). Briefly, human fibroblasts from patients with Tay-Sachs Disease, AB Variant were purchased from the NINDS Human Genetic Repository at the Coriell Institute, 403 Haddon Avenue, Camden, N.J., 08103, USA. Fibroblasts or Chinese Hamster Ovary cells were grown in T75 culture flasks, treated for 7 days with compounds, trypsinized, centrifuged (180 g, 5 min), washed twice with 1×PBS, centrifuged again and were stained with 1 ml of 100 nM LysoTracker-green DND-26 (Invitrogen) in PBS (10 min, in dark). Following incubation, cells were centrifuged (800 g, 5 min), resuspended in 0.5 ml of FACS buffer (0.1% BSA, 0.02 M NaN3 in 1×PBS) and kept on ice for a maximum of 1 h prior to flow cytometric analysis (BD Biosciences FACSCanto II or Accuri C6 Plus). The cytometer was calibrated using Cytometer Setup and Tracking beads (BD), and compensation was performed using cells stained with Lysotracker or Propidium Iodide using BD FACSDiva software (BD) or BD Accuri C6 Plus software (BD).
On the technique in general: Flow cytometry measures light scatter and fluorescence of single cells or particles in a stream.

A further data set concerns NPC CHO cells. Kind of data set: NPC cellular phenotype assay: lysosomal volume by LysoTracker flow cytometry. The data set is classed as cell-based, Chinese Hamster. As to conditions: for LysoTracker fluorescence, fold change relative to untreated samples (normalised as 1.0): NPC CHO cells, treated 7 days, Mean±SD, n=3, concentration of the compared values not printed in the legend (b616 names 1 mM). On the procedure: FIG. 1 is a line graph showing the effect of acetyl-leucine (referred to as IB1000) and acetyl-leucine-2,3,3,4-d4 (referred to as DIB1000) in a NPC cellular phenotype assay. NPC CHO cells were treated with 1, 10, 100, 1000, and 5000 μM of acetyl-leucine or acetyl-leucine-2,3,3,4-d4 for 7 days. Data shown is Mean±SD of 1-3 biological repeats. LysoTracker fluorescence is expressed as fold change relative to responses obtained from untreated samples (normalised as 1.0). Acetyl-leucine; 0.79±0.05, Acetyl-leucine-2,3,3,4-d4; 0.45±0.03, unpaired t test, Two-tailed test, **p<0.01, n=3. The technique applied in the present study is described in te Vruchte et al., J. Clin. Invest. 3:1320-1328 (2014). Briefly, human fibroblasts from patients with Tay-Sachs Disease, AB Variant were purchased from the NINDS Human Genetic Repository at the Coriell Institute, 403 Haddon Avenue, Camden, N.J., 08103, USA. Fibroblasts or Chinese Hamster Ovary cells were grown in T75 culture flasks, treated for 7 days with compounds, trypsinized, centrifuged (180 g, 5 min), washed twice with 1×PBS, centrifuged again and were stained with 1 ml of 100 nM LysoTracker-green DND-26 (Invitrogen) in PBS (10 min, in dark). Following incubation, cells were centrifuged (800 g, 5 min), resuspended in 0.5 ml of FACS buffer (0.1% BSA, 0.02 M NaN3 in 1×PBS) and kept on ice for a maximum of 1 h prior to flow cytometric analysis (BD Biosciences FACSCanto II or Accuri C6 Plus). The cytometer was calibrated using Cytometer Setup and Tracking beads (BD), and compensation was performed using cells stained with Lysotracker or Propidium Iodide using BD FACSDiva software (BD) or BD Accuri C6 Plus software (BD).

Data set [2] can be described thus: Pharmacokinetic study, plasma concentration after p.o. administration. The data set is classed as in vivo, male BALB/c mice. The following applies: for ratio for AUClast, deuterated analyte/non-deuterated analyte / ratio for Cmax, deuterated analyte/non-deuterated analyte: mice; for Cmax / AUC(0-t): male, BALB/c, mouse, plasma, po, 100 mg/kg, male BALB/c mice. On the procedure: Acetyl-leucine, acetyl-L-leucine, acetyl-leucine-2,3,3,4-d4 (1-rac), and acetyl-L-leucine-2,3,3,4-d4 (1) were administered to male BALB/c mice via the oral (p.o) route. Plasma and tissue samples were collected at predetermined time points and analysed using HR/MS.

Where [3] appears, read: deuterated or non-deuterated acetyl-L-leucine administered p.o. 100 mg/kg.
[4] abbreviates: deuterated or non-deuterated acetyl-leucine (racemate) administered p.o. 100 mg/kg.
Setting [5] is: plasma analyte after p.o. acetyl-L-leucine-2,3,3,4-d4 (1) 100 mg/kg in saline.
Setting [6] is: plasma analyte after p.o. acetyl-L-leucine-2,3,3,4-d4 (1) 100 mg/kg.
[7] abbreviates: plasma analyte after p.o. acetyl-leucine-2,3,3,4-d4 (1-rac) 100 mg/kg in saline.
The mark [8] stands for this setting: plasma analyte after p.o. acetyl-leucine-2,3,3,4-d4 (1-rac) 100 mg/kg.
The mark [9] stands for this setting: plasma analyte after p.o. acetyl-L-leucine 100 mg/kg.
The mark [10] stands for this setting: plasma analyte after p.o. acetyl-leucine 100 mg/kg.

In the case of `CC(=O)NC(CC(C)C)C(=O)O` (racemic) [acetyl-leucine, N-acetyl-DL-leucine], in data set [1], the “LysoTracker signal relative to untreated (1.00)” value came out at 0.97±0.01. Besides, in the data set with NPC CHO cells, the “LysoTracker fluorescence, fold change relative to untreated samples (normalised as 1.0)” value is on record as 0.79±0.05 fold change.

As for `[2H]C(C)(C)C([2H])([2H])[C@@]([2H])(NC(C)=O)C(=O)O` [acetyl-D-leucine-2,3,3,4-d4], the “ratio for AUClast, deuterated analyte/non-deuterated analyte” value stood at 5.50 in data set [2] (setting [3]) and 1.72 in data set [2] (setting [4]). Moreover, the “ratio for Cmax, deuterated analyte/non-deuterated analyte” value in data set [2] (setting [3]) is 7.40; in data set [2] (setting [4]) it was 0.59. Besides, the Cmax in data set [2] (setting [5]) came to 3230 ng/mL; in data set [2] (setting [7]) it was 50600 ng/mL. Besides, the figures for the AUC(0-t) in data set [2] (setting [6]) and in data set [2] (setting [8]) were 3150 ng·h/mL and 99600 ng·h/mL, respectively.

For the compound `[2H]C(C)(C)C([2H])([2H])[C@]([2H])(NC(C)=O)C(=O)O` (racemic) [acetyl-leucine-2,3,3,4-d4, Acetyl-leucine-2,3,3,4-d4], the “LysoTracker signal relative to untreated (1.00)” value in data set [1] amounted to 0.91±0.02. Besides, the “LysoTracker fluorescence level compared to acetyl-leucine” value in data set [1] (Tay-Sachs AB Variant human fibroblast cell line, 1 mM vs 1 mM acetyl-leucine) was “significant reduction”; with NPC CHO cells (NPC CHO cell line, 1 mM vs 1 mM acetyl-leucine) it was “significant reduction”. In addition, in the data set with NPC CHO cells, the “LysoTracker fluorescence, fold change relative to untreated samples (normalised as 1.0)” value came out at 0.45±0.03 fold change.

`CC(=O)N[C@@H](CC(C)C)C(=O)O` [acetyl-L-leucine, N-acetyl-L-leucine, reference compound]: the AUC(0-t) is 11400 ng·h/mL in data set [2] (setting [9]) and 2600 ng·h/mL in data set [2] (setting [10]).

With `[2H]C(C)(C)C([2H])([2H])[C@]([2H])(NC(C)=O)C(=O)O` [acetyl-L-leucine-2,3,3,4-d4, Acetyl-L-leucine-2,3,3,4-d4], the “ratio for AUClast, deuterated analyte/non-deuterated analyte” value was determined as 1.61 in data set [2] (setting [3]) and 1.32 in data set [2] (setting [4]). Moreover, the entries for the “ratio for Cmax, deuterated analyte/non-deuterated analyte” value in data set [2] (setting [3]) and in data set [2] (setting [4]) were 1.75 and 1.14, respectively. Also, the Cmax amounted to 29300 ng/mL in data set [2] (setting [5]) and 3880 ng/mL in data set [2] (setting [7]). For the same compound, the AUC(0-t) in data set [2] (setting [6]) came to 18200 ng·h/mL; in data set [2] (setting [8]), 3430 ng·h/mL.

As for `CC(=O)N[C@H](CC(C)C)C(=O)O` [acetyl-D-leucine, N-acetyl-D-leucine, reference compound], the AUC(0-t) in data set [2] (setting [9]) was found to be 573 ng·h/mL; in data set [2] (setting [10]), 57800 ng·h/mL.
